Data reported in patent US4605514A, “Des-4-leucine-calcitonin” (Armour Pharmaceutical Company, priority 1984, dated 1986).

Test system: Rats
Assay: Biological assay of calcitonin analogs in vivo: reduction of serum calcium concentration vs synthetic salmon calcitonin standard, 2×2 parallel line assay
Settings: standard used in the assay; independently determined
Procedure: Biological Assay Of Calcitonin Analogs In Vivo
The biological potency of des-4-leucine-salmon calcitonin was determined by comparing the reduction of serum calcium concentration which followed administration by graded doses of des-Leu^4 -SCT and synthetic salmon calcitonin standard. Rats were divided into four groups of seven animals, and each group was assigned at random to a dose of standard or test solution. Low and high doses were chosen from the linear portion of the dose-response curve. For the salmon calcitonin standard, the values were 0.7 and 2.1 ng. peptide/100 g. body weight (BW). This dose approximates 3 and […]/100 g. BW. Peptides were given by subcutaneous injection (0.2 ml/100 g. BW) and blood was withdrawn 1 hour later for serum calcium determination. Sera are processed and analyzed within two hours of collection. […]. Results were analyzed by a 2×2 parallel line assay [Gaddum, J. H., J. Pharm. Pharmacol., 6, 345 (1953)]. The standard salmon calcitonin used was independently determined to contain greater than 4,000 IU/mg. des-Leu^4 -SCT assayed at 5400 IU/mg.

CC(C)C[C@H](NC(=O)[C@H](CCCCN)NC(=O)CNC(=O)[C@H](CC(C)C)NC(=O)[C@@H](NC(=O)[C@@H]1CSSC[C@H](N)C(=O)N[C@@H](CO)C(=O)N[C@@H](CC(N)=O)C(=O)N[C@@H](CC(C)C)C(=O)N[C@@H](CO)C(=O)N[C@@H]([C@@H](C)O)C(=O)N1)C(C)C)C(=O)N[C@@H](CO)C(=O)N[C@@H](CCC(N)=O)C(=O)N[C@@H](CCC(=O)O)C(=O)N[C@@H](CC(C)C)C(=O)N[C@@H](Cc1c[nH]cn1)C(=O)N[C@@H](CCCCN)C(=O)N[C@@H](CC(C)C)C(=O)N[C@@H](CCC(N)=O)C(=O)N[C@H](C(=O)N[C@@H](Cc1ccc(O)cc1)C(=O)N1CCC[C@H]1C(=O)N[C@@H](CCCNC(=N)N)C(=O)N[C@H](C(=O)N[C@@H](CC(N)=O)C(=O)N[C@H](C(=O)NCC(=O)N[C@@H](CO)C(=O)NCC(=O)N[C@H](C(=O)N1CCC[C@H]1C(N)=O)[C@@H](C)O)[C@@H](C)O)[C@@H](C)O)[C@@H](C)O [standard salmon calcitonin, Salmon calcitonin]
potency content of the standard salmon calcitonin: greater than 4,000 IU/mg
